For the test, the target named is T1, human NHE-1 (Homo sapiens, UniProt P19634).
T1 construct: expressed in transfected cells; host or cells: LAP-1 (NHE-deficient parental cell line), stably transfected, G418 selection
The test is described as follows: FLIPR assay of pHi recovery for NHE-1 inhibition. In kind it is cell-based. Conditions: transfected LAP-1 cell line expressing human NHE-1, BCECF pHi recovery, read-out: NHE1 inhibition IC50. As to the method:
The inhibitory concentration IC50 for NHE-1 inhibition was determined as follows:
IC50 for NHE-1 inhibition were determined in a FLIPR assay by measurement of the recovery in pHi in transfected cell lines which express human NHE-1.
The assay was carried out in an FLIPR (fluorescent imaging plate reader) with black-walled 96-well microtiter plates with clear bases.
The growth medium for the transfected cells (Iscove+10% fetal calf serum) additionally contained G418 as selection antibiotic in order to ensure the presence of the transfected sequences.
The actual assay started with the removal of the growth medium and addition of 100 μl of loading buffer per well (5 μM BCECF-AM [2′,7′-bis(carboxyethyl)-5-(and -6-)carboxyfluorescein, acetoxymethyl ester] in 20 mM NH4Cl, 115 mM choline chloride, 1 mM MgCl2, 1 mM CaCl2, 5 mM KCl, 20 mM HEPES, 5 mM glucose; pH 7.4 [adjusted with KOH]). The cells were then incubated at 37° C. for 20 minutes. This incubation led to loading of the cells with the fluorescent dye whose fluorescence intensity depends on pHi, and with NH4Cl which makes the cells slightly alkaline. The nonfluorescent dye precursor BCECF-AM is, as ester, membrane-permeable. The actual dye BCECF is not membrane-permeable but is liberated inside cells by esterases. […]

T1 sequence (P19634 whole entry): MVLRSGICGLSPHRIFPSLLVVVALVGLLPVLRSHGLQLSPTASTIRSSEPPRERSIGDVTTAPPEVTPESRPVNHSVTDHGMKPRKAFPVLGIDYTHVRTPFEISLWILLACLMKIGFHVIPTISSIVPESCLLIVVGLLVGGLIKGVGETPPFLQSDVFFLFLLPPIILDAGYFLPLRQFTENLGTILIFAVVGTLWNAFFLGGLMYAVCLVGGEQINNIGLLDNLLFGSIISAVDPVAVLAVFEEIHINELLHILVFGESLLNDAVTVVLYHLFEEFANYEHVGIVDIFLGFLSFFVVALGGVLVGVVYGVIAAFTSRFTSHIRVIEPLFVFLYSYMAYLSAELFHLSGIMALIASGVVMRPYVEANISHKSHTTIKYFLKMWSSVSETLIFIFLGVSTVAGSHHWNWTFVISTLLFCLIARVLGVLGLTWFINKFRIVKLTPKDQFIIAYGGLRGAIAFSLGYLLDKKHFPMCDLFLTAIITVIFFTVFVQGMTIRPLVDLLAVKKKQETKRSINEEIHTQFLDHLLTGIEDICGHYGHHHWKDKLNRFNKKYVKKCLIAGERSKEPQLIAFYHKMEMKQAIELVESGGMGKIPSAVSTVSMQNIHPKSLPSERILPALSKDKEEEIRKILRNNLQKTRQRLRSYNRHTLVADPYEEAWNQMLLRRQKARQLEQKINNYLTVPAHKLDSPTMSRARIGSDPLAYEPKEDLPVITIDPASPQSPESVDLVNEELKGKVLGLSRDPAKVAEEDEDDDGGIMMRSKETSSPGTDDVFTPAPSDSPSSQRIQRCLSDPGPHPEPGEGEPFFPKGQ

As for `Cc1cc(Oc2ccc(S(C)(=O)=O)c(S(F)(F)(F)(F)F)c2)c(S(C)(=O)=O)cc1C(=O)N=C(N)N` [Example 1, N-[5-methanesulfonyl-4-(4-methanesulfonyl-3-pentafluorosulfanyl-phenoxy)-2-methylbenzoyl]guanidine], the half-maximal inhibitory concentration (IC50) is 33 nM.

Source of the values: patent publication US7446225B2, “Pentafluorosulfanylphenyl-substituted benzoylguanidines, method for the production thereof, their use as a medicament or diagnostic agent, and a medicament containing these compounds” (Sanofi-aventis Deutschland GmbH, priority 2004, dated 2008).
